From publication PMC8971402, “Author Correction: Effects of route of administration on oxytocin-induced changes in regional cerebral blood flow in humans” (Nature Communications, 2022)
Where “and” joins values, the source holds several entries; their conditions need not be identical. Equal values may be shown once.

Tests used:
[1] = test system: heart rate and heart rate variability; design: species or system humans; conditions: in vivo, iv
Description: Supplementary Table 4 – Percentage of observations satisfying quality control criteria for
the pulse plethysmography analysis. Following current recommendations for heart rate data
processing and analysis, if more than 5% of the beats required correction, then we decided to
exclude these periods of observation. In some rare cases where artefacts could not be corrected,
we only included the data if at least 5 min of acquisition free of artefacts could be analysed. In
this table, we present the percentage of total data available satisfying our quality control criteria
for each treatment method of administration and time-interval, so the reader can appreciate the
amount of data effectively used in the final analysis.
Time from last drug administration offset (minutes)
We determined time-interval, treatment, and treatment
x time-interval effects on a set of time domain (heart-rate (HR) and the root mean square of the successive differences (RMSSD), frequency domain
(low (LF) and high (HF) frequencies spectral powers and high/low frequency spectral power ratio (HF/LF)) and non-linear (Approximate entropy
(ApEn), the SD1 and SD2 lines from the Poincare Plot and the detrended fluctuation scaling exponents DFAα1 and DFAα2) analysis measures of
heart rate variability. We used a repeated measures two-way analysis of variance, using subjects, treatment and time as factors, and the Greenhouse- […]

[2] = in vivo
Description: We present a summary of three
(§1) parameters describing the pharmacokinetics of each treatment administration method. We
(§2) present the maximum plasmatic concentration achieved after dosing (Cmax), the area under the
(§3) curve (AUC) reflecting the magnitude of the variations of plasmatic oxytocin post-dosing and
(§4) the absolute bioavailability of oxytocin absorbed to the plasma, calculated as the dose-corrected
(§5) AUC of each intranasal administration divided by the dose-corrected AUC of the intravenous
(§6) administration. Data are presented as mean (1 standard error of the mean).

[3] = Pharmacokinetics of plasmatic oxytocin after intravenous, nasal spray or nebulizer administration; conditions: for Concentration (plasma oxytocin): Condition IV, individual participants (Fig6A source data); for Bioavailability: individual participants, corrected source data (Fig6C)
Description: We present a summary of three
as §1, §2, §3, §4, §5, §6

AUC over the observation interval, intravenous OT infusion vs intranasal methods [2]: significantly higher AUC | Concentration (plasma oxytocin) ([3]; Sample 2, in pg/mL): 65.12 and 59.67 and 47.11 | Concentration (plasma oxytocin) ([3]; Sample 3): 0.0681 ng/mL | Concentration (plasma oxytocin) ([3]; Sample 4): 0.0539 ng/mL | Concentration (plasma oxytocin) ([3]; Sample 4, in pg/mL): 30.93 | Concentration (plasma oxytocin) ([3]; Sample 6, in pg/mL): 12.86 and 20.71 | Concentration (plasma oxytocin) ([3]; Sample 7): 0.00723 ng/mL and 0.00461 ng/mL | Concentration (plasma oxytocin) ([3]; Sample 8): 0.00377 ng/mL | Absolute bioavailability of OT absorbed to the plasma, standard nasal spray vs PARI SINUS nebulizer ([3]; corrected AUCs, paired t-test p = 0.438): no significant differences | Cmax ([3]; human, in vivo, iv, SEM): 0.0643 ng/mL
Compound: CC[C@H](C)[C@@H]1NC(=O)[C@H](Cc2ccc(O)cc2)NC(=O)[C@@H](N)CSSC[C@@H](C(=O)N2CCC[C@H]2C(=O)N[C@@H](CC(C)C)C(=O)NCC(N)=O)NC(=O)[C@H](CC(N)=O)NC(=O)[C@H](CCC(N)=O)NC1=O [oxytocin]
Effect on heart rate and heart rate variability [1]: did not affect heart rate or heart rate variability | Bioavailability ([3]; Nebuliser): 31.90% and 10.30% and 3.30% and 7.94% and 12.67% and 62.94% and 5.39% and 6.53% and 8.236% and 4.17% and 6.07% and 5.20% and 6.82% and 10.22% and 6.95% and 32.80% | Bioavailability ([3]; Spray): 6.85% and 11.96% and 5.38% and 16.81% and 5.32% and 6.16% and 8.93% and 4.67% and 8.4323% and 12.50% and 14.77% and 6.29% and 7.56% and 11.34% and 5.36% and 37.05%
